# What was measured:
# PHBPU [1] = assay: Post-emergence herbicidal action against PHBPU; type: in vivo, Pharbitis purpurea; details: Ipomoea purpurea, 504 h
# Procedure, shortened: (§1)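 Greenhouse plants in sandy loam were sprayed at the one-leaf stage, 2 to 3 weeks after sowing, with WP or EC formulations as aqueous suspension or emulsion (600 to 800 l/ha water, 0.2% wetting agent). Visual damage was scored about 3 weeks later versus untreated controls, 0% = like control, 100% = dead.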
# ALOMY [2] = assay: Post-emergence herbicidal action against ALOMY; type: in vivo, Alopecurus myosuroides; details: Alopecurus myosuroides, 504 h, visual assessment about 3 weeks after treatment vs untreated controls
# Procedure, shortened: as §1
# ECHCG [3] = assay: Post-emergence herbicidal action against ECHCG; type: in vivo, Echinochloa crus-galli; details: Echinochloa crus-galli, 504 h, dosage 20 g/ha
# Procedure, shortened: as §1
# LOLRI [4] = assay: Post-emergence herbicidal action against LOLRI; type: in vivo, Lolium rigidum; details: Lolium rigidum, 504 h, dosage 20 g/ha
# Protocol: Seeds of monocotyledonous and dicotyledonous weed and crop plants are laid out in sandy loam soil in wood-fiber pots, covered with soil and cultivated in a greenhouse under good growth conditions. 2 to 3 weeks after sowing, the test plants are treated at the one-leaf stage. The compounds of the invention, formulated in the form of wettable powders (WP) or as emulsion concentrates (EC), are then sprayed onto the green parts of the plants in the form of an aqueous suspension or emulsion at a water application rate equivalent to 600 to 800 l/ha, with addition of 0.2% wetting agent. After the test plants have been left to stand in the greenhouse under optimal growth conditions for about 3 weeks, the action of the preparations is assessed visually in comparison to untreated controls (herbicidal action in percent (%): 100% activity=the plants have died, 0% activity=like control plants). […] The tables below illustrate, in an illustrative manner, the post-emergence herbicidal action of the compounds of the invention, the herbicidal activity being stated in percent.
# ECHCG [5] = assay: Pre-emergence herbicidal action against ECHCG; type: in vivo, Echinochloa crus-galli; details: Echinochloa crus-galli, 504 h, 80 g/ha
# Procedure, shortened: (§2)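 Pre-emergence soil-surface spray of formulated compound (WP or EC; 600 to 800 l/ha; 0.2% wetting agent) over seeds sown in sandy loam. After 3 weeks under greenhouse conditions, damage is estimated visually in percent against untreated plants.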
# ABUTH [6] = assay: Post-emergence herbicidal action against ABUTH; type: in vivo, Abutilon theophrasti; details: Abutilon theophrasti, 504 h, visual assessment about 3 weeks after treatment vs untreated controls
# Procedure, shortened: as §1
# POLCO = assay: Pre-emergence herbicidal action against POLCO; type: in vivo, Polygonum convolvulus; details: Fallopia convolvulus, 504 h, dosage 80 g/ha
# Procedure, shortened: as §2
# AMARE [7] = assay: Pre-emergence herbicidal action against AMARE; type: in vivo, Amaranthus retroflexus; details: Amaranthus retroflexus, 504 h, scored visually after 3 weeks vs untreated controls, 100% = plants have died, 0% = like control plants
# Procedure, shortened: as §2
# VIOTR [8] = assay: Pre-emergence herbicidal action against VIOTR; type: in vivo, Viola tricolor; details: Viola tricolor, 504 h
# Procedure, shortened: as §2
# LOLRI [9] = assay: Pre-emergence herbicidal action against LOLRI; type: in vivo, Lolium rigidum; details: Lolium rigidum, 504 h, 80 g/ha
# Procedure, shortened: as §2
# AVEFA = assay: Post-emergence herbicidal action against AVEFA; type: in vivo, Avena fatua; details: Avena fatua, 504 h, 20 g/ha, visual assessment about 3 weeks after treatment, 100% = plants have died, 0% = like control plants
# Procedure, shortened: as §1
# VERPE [10] = assay: Pre-emergence herbicidal action against VERPE; type: in vivo, Veronica persica; details: Veronica persica, 504 h
# Procedure, shortened: as §2
# MATIN [11] = assay: Pre-emergence herbicidal action against MATIN; type: in vivo, Matricaria inodora; details: Tripleurospermum inodorum, 504 h
# Procedure, shortened: as §2
# SETVI [12] = assay: Post-emergence herbicidal action against SETVI; type: in vivo, Setaria viridis; details: Setaria viridis, 504 h, dosage 20 g/ha
# Procedure, shortened: as §1
# ABUTH [13] = assay: Pre-emergence herbicidal action against ABUTH; type: in vivo, Abutilon theophrasti; details: Abutilon theophrasti, 504 h
# Procedure, shortened: as §2
# AMARE [14] = assay: Post-emergence herbicidal action against AMARE; type: in vivo, Amaranthus retroflexus; details: Amaranthus retroflexus, 504 h, 20 g/ha, visual assessment about 3 weeks after treatment, 100% = plants have died, 0% = like control plants
# Procedure, shortened: as §1
# DIGSA [15] = assay: Pre-emergence herbicidal action against DIGSA; type: in vivo, Digitaria sanguinalis; details: Digitaria sanguinalis, 504 h
# Procedure, shortened: as §2
# PHBPU [16] = assay: Pre-emergence herbicidal action against PHBPU; type: in vivo, Pharbitis purpurea; details: Ipomoea purpurea, 504 h, dosage 80 g/ha
# Procedure, shortened: as §2
# SETVI [17] = assay: Pre-emergence herbicidal action against SETVI; type: in vivo, Setaria viridis; details: Setaria viridis, 504 h, dosage 80 g/ha
# Procedure, shortened: as §2
# DIGSA [18] = assay: Post-emergence herbicidal action against DIGSA; type: in vivo, Digitaria sanguinalis; details: Digitaria sanguinalis, 504 h
# Procedure, shortened: as §1
# VIOTR [19] = assay: Post-emergence herbicidal action against VIOTR; type: in vivo, Viola tricolor; details: Viola tricolor, 504 h, 20 g/ha
# Procedure, shortened: as §1
# ALOMY [20] = assay: Pre-emergence herbicidal action against ALOMY; type: in vivo, Alopecurus myosuroides; details: Alopecurus myosuroides, 504 h; 80 g/ha, pre-emergence, scored visually after 3 weeks vs untreated controls (100% = plants have died, 0% = like control plants)
# Procedure, shortened: as §2
# VERPE [21] = assay: Post-emergence herbicidal action against VERPE; type: in vivo, Veronica persica; details: Veronica persica, 504 h
# Procedure, shortened: as §1
# MATIN [22] = assay: Post-emergence herbicidal action against MATIN; type: in vivo, Matricaria inodora; details: Tripleurospermum inodorum, 504 h, dosage 20 g/ha
# Procedure, shortened: as §1
structure (smiles),measurement,setting,value
CNC(=O)c1c(C(F)(F)C(F)(F)F)ccc(C(=O)Nc2nnnn2C)c1Cl [Example 1-165],pest or weed control at 5 g/ha,PHBPU [1]; dosage 5 g/ha,90%
same,pest or weed control at 20 g/ha,PHBPU [1]; dosage 20 g/ha,90%
same,pest or weed control at 5 g/ha,ALOMY [2]; dosage 5 g/ha,90%
same,pest or weed control at 20 g/ha,ALOMY [2]; dosage 20 g/ha,100%
same,pest or weed control at 20 g/ha,ECHCG [3],90%
same,pest or weed control at 20 g/ha,LOLRI [4],80%
same,pest or weed control at 80 g/ha,ECHCG [5],100%
same,pest or weed control at 5 g/ha,ABUTH [6]; dosage 5 g/ha,90%
same,pest or weed control at 20 g/ha,ABUTH [6]; dosage 20 g/ha,90%
same,pest or weed control at 80 g/ha,POLCO,90%
same,pest or weed control at 20 g/ha,AMARE [7]; 20 g/ha,100%
same,pest or weed control at 80 g/ha,AMARE [7]; 80 g/ha,100%
same,pest or weed control at 20 g/ha,VIOTR [8]; dosage 20 g/ha,90%
same,pest or weed control at 80 g/ha,VIOTR [8]; dosage 80 g/ha,100%
same,pest or weed control at 80 g/ha,LOLRI [9],80%
same,pest or weed control at 20 g/ha,AVEFA,90%
same,pest or weed control at 20 g/ha,VERPE [10]; dosage 20 g/ha,80%
same,pest or weed control at 80 g/ha,VERPE [10]; dosage 80 g/ha,100%
same,pest or weed control at 20 g/ha,MATIN [11]; dosage 20 g/ha,100%
same,pest or weed control at 80 g/ha,MATIN [11]; dosage 80 g/ha,100%
same,pest or weed control at 20 g/ha,SETVI [12],90%
same,pest or weed control at 80 g/ha,"ABUTH [13]; 80 g/ha, scored visually after 3 weeks vs untreated controls (100% = plants have died, 0% = like control plants)",100%
same,pest or weed control at 20 g/ha,"ABUTH [13]; dosage 20 g/ha, scored visually after 3 weeks vs untreated controls, 100% = plants have died, 0% = like control plants, read-out: Pre-emergence action against ABUTH (herbicidal activity in percent)",90%
same,pest or weed control at 20 g/ha,AMARE [14],90%
same,pest or weed control at 20 g/ha,DIGSA [15]; dosage 20 g/ha,100%
same,pest or weed control at 80 g/ha,DIGSA [15]; dosage 80 g/ha,100%
same,pest or weed control at 80 g/ha,PHBPU [16],100%
same,pest or weed control at 80 g/ha,SETVI [17],100%
same,pest or weed control at 5 g/ha,DIGSA [18]; 5 g/ha,90%
same,pest or weed control at 20 g/ha,DIGSA [18]; 20 g/ha,90%
same,pest or weed control at 20 g/ha,VIOTR [19],80%
same,pest or weed control at 80 g/ha,ALOMY [20],100%
same,pest or weed control at 5 g/ha,VERPE [21]; 5 g/ha,80%
same,pest or weed control at 20 g/ha,VERPE [21]; 20 g/ha,80%
same,pest or weed control at 20 g/ha,MATIN [22],80%

# — patent US12655116B2, “Substituted isophthalic acid diamides” (Bayer Aktiengesellschaft, priority 2020, dated 2026)
